Key:
[1] = test system: gonadal fat pads of C57BL/6 adult male mice, a pro-fibrotic mouse model; experiment: 28-day implantation of functionalized PDMS disks on gonadal fat pads (IP space); gross fibrosis and histology; assay type: in vivo; details: 28 days
Method: PDMS disk/pillar preparation & functionalization. PDMS implants were made with SYLGARD™ 184 silicone elastomer by mixing the base and curing agent in a ratio of 10:1 and letting sit 24 hours at room temperature in either sheets or pillar molds. The PDMS sheets were punched with 4 mm biopsy punches to make disks, or the pillar were removed from their molds, and plasma cleaned under general atmospheric air on each side for 1 minute at high Rf, 700-800 torr. Samples were then functionalized by one of two methods: Method 1) for the methacryloyl modified Z2-Y12 and Z2-Y12 Analog, the PDMS disks were incubating in a solution of DMSO:ACN (Sigma) (60:40) overnight under nitrogen gas flow. For the methacryloyl modified Z1-Y15 (0.2M), methacryloyl Z1-Y15 was added to DMSO (0.3 w/v %) and heated to 80° C. Separately Milli-Q H2O was heated to 80° C. and added to the reaction dropwise for a final mixture of 1:4 DMSO:Milli-Q H2O. The mixture was left stirring under reduced heat 40-50° C. under high stirring conditions ([…]). PDMS sheets were added to this mixture and allowed to stir overnight under Nitrogen gas. Disks were submerged in 1×PBS and left to soak for 10 minutes. Samples were then washed 3× with 1×PBS after overnight functionalization. […] Functionalized disks were maintained at −80° C. until they were ready for implantation. […]

brain of mice = experiment: 2-week PDMS pillar implantation in mouse brain; histology and immunohistochemistry; assay type: in vivo; details: PDMS pillars, 2 weeks
Method: Mouse Brain Implantation. C57BL/6J mice were allowed to acclimate for greater than one week prior to surgical manipulation. After the acclimation period, 24 hours prior to surgery, the mice were premedicated with 5 mg/kg meloxicam SC for analgesia. 30 minutes prior to surgery, the mice were given 30 mg/kg trimethoprim-sulfamethoxazole PO for antimicrobial prophylaxis. The mice were then anesthetized with 3% isoflurane with 1 L/min O2 in an induction chamber and then transferred to a nose cone with 1-3% inhaled isoflurane with 0.5 L/min O2 for maintenance anesthesia. Depth of anesthesia was monitored testing for no response to toe pinch throughout surgery. Immediately following induction, the mouse was placed on a warming pad and maintained on the warming pad throughout surgery. The fur on the mouse head was trimmed with an electric razor and topical anesthetic with 2.5% lidocaine/prilocaine cream was applied for several minutes. The mice were then given 5 mg/kg meloxicam SC and 0.1 mg/kg buprenorphine SC for analgesia. The trimmed mouse scalp was then scrubbed with 7.5% povidone-iodine solution. Sterile neoprene surgical gloves (Medichoice) and sterile autoclaved instruments were used to maintain sterile technique throughout surgery. […]

Structure (SMILES): NCCOCCOCCOCCn1cc(CN2CCS(=O)(=O)CC2)nn1 [Z1]
- adherent peripheral tissue on disks (FBR and fibrosis) ([1]; PDMS disks, gonadal fat pads): virtually no adherent peripheral tissue was found
- interfacial fibrotic layer on the implant surface (histology) ([1]; tissue around PDMS implants): prevented the development of an interfacial fibrotic layer
- accumulation/migration of immune cells at the implant site (immunohistochemistry) (brain of mice): not observed
- fibrotic strands of cells at the implant site (histology) (brain of mice): absent
